According to US11548899B2, “Fused 1,4-oxazepines and related analogs as BET bromodomain inhibitors” (THE REGENTS OF THE UNIVERSITY OF MICHIGAN, priority 2016, dated 2023):
Several values for one entry are separate records, joined by “and”; a condition that tells them apart may be missing. Equal values may be shown once. Read-outs that look alike come from different tables or passages of the source.

Legend:
recombinant BRD4 BD1 = biological target: T1, recombinant BRD4 BD1 (Homo sapiens, UniProt O60885); experiment: Competitive fluorescence-polarization (FP) binding assay, BRD4 BD1; details: protein 10 nM, probe 1.5 nM
T1 construct: recombinant BRD4 BD1 and BRD4 BD2 proteins
Protocol: Fluorescence Polarization (FP) competitive binding studies were carried out using a FAM labeled fluorescent probe, see Cpd. […] Equilibrium dissociation constants (Kd) values of the fluorescent probe to BRD4 BD1 and BD2 proteins were determined from protein saturation experiments by monitoring the total fluorescence polarization of mixtures composed with the fluorescent probe at a fixed concentration and proteins with increasing concentrations up to full saturation. […] Plates were incubated at room temperature for 30 minutes with gentle shaking to assure equilibrium.
The IC50 and Ki values of compounds were determined in a competitive binding experiment. […] Mixtures of 10 μl of the tested compounds in assay buffer with 40% Ethylene Glycol and 190 μl of preincubated protein/probe complex solution in the assay buffer (100 mM potassium phosphate, pH 6.5, 0.01% Triton X-100) were added into assay plates which were incubated at room temperature for 30 minutes with gentle shaking. Final concentrations of proteins were 10 and 6 nM in assays for BRD4 BD1 and BD2, respectively. […] FP values were measured as described above. IC50 values were determined by nonlinear regression fitting of the competition curves.

recombinant BRD4 BD2 = biological target: T2, recombinant BRD4 BD2 (Homo sapiens, UniProt O60885); experiment: Competitive fluorescence-polarization (FP) binding assay, BRD4 BD2; details: protein 6 nM, probe 1.5 nM
T2 construct: recombinant BRD4 BD1 and BRD4 BD2 proteins

[1] = FP competitive binding, read-out: IC50 (nM) BRD4 BD1

SMILES	IC50 (recombinant BRD4 BD1; [1])	IC50 (recombinant BRD4 BD2)	IC50 (recombinant BRD4 BD1; IC50 (nM) BRD4 BD1, FP competitive binding) [nM]
Cc1cc2c(s1)-n1c(C)nnc1COC2 [Cpd. No. 1, 2,9-dimethyl-4H,6H-thieno[2,3-e][1,2,4]triazolo[3,4-c][1,4]oxazepine]	66900 nM		
Cc1sc2c(c1Br)COCc1nnc(C)n1-2 [Cpd. No. 2, 3-bromo-2,9-dimethyl-4H,6H-thieno[2,3-e][1,2,4]triazolo[3,4-c][1,4]oxazepine]	23200 nM		
Cc1sc2c(c1-c1ccccc1)COCc1nnc(C)n1-2 [Cpd. No. 3, 2,9-dimethyl-3-phenyl-4H,6H-thieno[2,3-e][1,2,4]triazolo[3,4-c][1,4]oxazepine]	13300 nM		
Cc1sc2c(c1Cc1ccccc1)CN[C@@H](C)c1nnc(C)n1-2 [Cpd. No. 13, (S)-3-benzyl-2,6,9-trimethyl-5,6-dihydro-4H-thieno[3,2-f][1,2,4]triazolo[4,3-a][1,4]diazepine]	1070 nM and 1200 nM	1210 nM and 1350 nM	
Cc1sc2c(c1Cc1ccccc1)CN[C@H](C)c1nnc(C)n1-2 [Cpd. No. 17, (R)-3-benzyl-2,6,9-trimethyl-5,6-dihydro-4H-thieno[3,2-f][1,2,4]triazolo[4,3-a][1,4]diazepine]	1080 nM	622 nM	
CCC(=O)N1Cc2c(sc(C)c2Cc2ccccc2)-n2c(C)nnc2[C@@H]1C [Cpd. No. 19, (S)-1-(3-benzyl-2,6,9-trimethyl-4H-thieno[3,2-f][1,2,4]triazolo[4,3-a][1,4]diazepin-5(6H)-yl)propan-1-one]	2430 nM	3210 nM	
COC(=O)C[C@H]1c2nnc(C)n2-c2sc(C)c(Cc3ccccc3)c2CN1C(=O)OCc1ccccc1 [Cpd. No. 21, benzyl (S)-3-benzyl-6-(2-methoxy-2-oxoethyl)-2,9-dimethyl-4H-thieno[3,2-f][1,2,4]triazolo[4,3-a][1,4]diazepine-5(6H)-carboxylate]	23800 nM	17700 nM	
CCNC(=O)N1Cc2c(sc(C)c2Cc2ccccc2)-n2c(C)nnc2[C@@H]1C [Cpd. No. 22, (S)-3-benzyl-N-ethyl-2,6,9-trimethyl-4H-thieno[3,2-f][1,2,4]triazolo[4,3-a][1,4]diazepine-5(6H)-carboxamide]	6060 nM	5920 nM	
COC(=O)C[C@@H]1NCc2c(sc(C)c2Cc2ccccc2)-n2c(C)nnc21 [Cpd. No. 23, methyl(S)-2-(3-benzyl-2,9-dimethyl-5,6-dihydro-4H-thieno[3,2-f][1,2,4]triazolo[4,3-a][1,4]diazepin-6-yl)acetate]	2500 nM	9010 nM	
Cc1nnc2n1-c1scc(Cc3ccccc3)c1COC2 [Cpd. No. 30, 3-benzyl-9-methyl-4H,6H-thieno[2,3-e][1,2,4]triazolo[3,4-c][1,4]oxazepine]	1390 nM		
Cc1sc2c(c1C1=CCc3ccccc31)COCc1nnc(C)n1-2 [Cpd. No. 53, 3-(1H-inden-3-yl)-2,9-dimethyl-4,6-dihydrothieno[2,3-e][1,2,4]triazolo[3,4-c][1,4]oxazepine]	244 nM		
Cc1sc2c(c1C1CCc3ccccc31)COCc1nnc(C)n1-2 (centres unmarked) [Cpd. No. 55, 3-(2,3-dihydro-1H-inden-1-yl)-2,9-dimethyl-4,6-dihydrothieno[2,3-e][1,2,4]triazolo[3,4-c][1,4]oxazepine]	288 nM		
Cc1sc2c(c1C1=CCCCc3ccccc31)COCc1nnc(C)n1-2 [Cpd. No. 56, 3-(6,7-dihydro-5H-benzo[7]annulen-9-yl)-2,9-dimethyl-4,6-dihydrothieno[2,3-e][1,2,4]triazolo[3,4-c][1,4]oxazepine]	134 nM		
Cc1sc2c(c1C1=CCCc3cc(F)ccc31)COCc1nnc(C)n1-2 [Cpd. No. 57, 3-(6-fluoro-3,4-dihydronaphthalen-1-yl)-2,9-dimethyl-4,6-dihydrothieno[2,3-e][1,2,4]triazolo[3,4-c][1,4]oxazepine]	198 nM		
Cc1sc2c(c1C1=CCCc3ccc(F)cc31)COCc1nnc(C)n1-2 [Cpd. No. 58, 3-(7-fluoro-3,4-dihydronaphthalen-1-yl)-2,9-dimethyl-4,6-dihydrothieno[2,3-e][1,2,4]triazolo[3,4-c][1,4]oxazepine]	289 nM		
Cc1nnc2n1-c1cccc(C3=CCCCc4ccccc43)c1COC2 [Cpd. No. 59, 7-(6,7-dihydro-5H-benzo[7]annulen-9-yl)-1-methyl-4,6-dihydrobenzo[e][1,2,4]triazolo[3,4-c][1,4]oxazepine]	966 nM		
Cc1nnc2n1-c1cccc(C3CCCCc4ccccc43)c1COC2 (centres unmarked) [Cpd. No. 60, 1-methyl-7-(6,7,8,9-tetrahydro-5H-benzo[7]annulen-5-yl)-4,6-dihydrobenzo[e][1,2,4]triazolo[3,4-c][1,4]oxazepine]	1150 nM		
Cc1nnc2n1-c1ccc(Cl)c(Br)c1COC2 [Cpd. No. 70, 7-bromo-8-chloro-1-methyl-4,6-dihydrobenzo[e][1,2,4]triazolo[3,4-c][1,4]oxazepine]	> 10000 nM		
Cc1nnc2n1-c1ccc(-c3ccc(N)nc3)c(Cc3ccccc3)c1COC2 [Cpd. No. 72, 5-(7-benzyl-1-methyl-4,6-dihydrobenzo[e][1,2,4]triazolo[3,4-c][1,4]oxazepin-8-yl)pyridin-2-amine]	2070 nM and 1980 nM		

SMILES	IC50 (recombinant BRD4 BD1; [1])	IC50 (recombinant BRD4 BD2)	IC50 (recombinant BRD4 BD1; IC50 (nM) BRD4 BD1, FP competitive binding) [nM]
Cc1nnc2n1-c1ccc(Cl)c(C3=CCCc4ccccc43)c1COC2 [Cpd. No. 74, 8-chloro-7-(3,4-dihydronaphthalen-1-yl)-1-methyl-4,6-dihydrobenzo[e][1,2,4]triazolo[3,4-c][1,4]oxazepine]			1780
Cc1nnc2n1-c1ccc(-c3cn[nH]c3)c(Cc3ccccc3)c1COC2 [Cpd. No. 75, 7-benzyl-1-methyl-8-(1H-pyrazol-4-yl)-4,6-dihydrobenzo[e][1,2,4]triazolo[3,4-c][1,4]oxazepine]	923 nM		
Cc1nnc2n1-c1ccc(-c3cnn(CC(N)=O)c3)c(Cc3ccccc3)c1COC2 [Cpd. No. 76, 2-(4-(7-benzyl-1-methyl-4,6-dihydrobenzo[e][1,2,4]triazolo[3,4-c][1,4]oxazepin-8-yl)-1H-pyrazol-1-yl)acetamide]	937 nM		
Cc1nnc2n1-c1ccc(C3=CCOCC3)c(Cc3ccccc3)c1COC2 [Cpd. No. 77, 7-benzyl-8-(3,6-dihydro-2H-pyran-4-yl)-1-methyl-4,6-dihydrobenzo[e][1,2,4]triazolo[3,4-c][1,4]oxazepine]	13200 nM		
Cc1nnc2n1-c1ccc(C3=COCC3)c(Cc3ccccc3)c1COC2 [Cpd. No. 78, 7-benzyl-8-(4,5-dihydrofuran-3-yl)-1-methyl-4,6-dihydrobenzo[e][1,2,4]triazolo[3,4-c][1,4]oxazepine]	1320 nM		
Cc1nnc2n1-c1ccc(C3CCOCC3)c(Cc3ccccc3)c1COC2 [Cpd. No. 79, 7-benzyl-1-methyl-8-(tetrahydro-2H-pyran-4-yl)-4,6-dihydrobenzo[e][1,2,4]triazolo[3,4-c][1,4]oxazepine]	18100 nM		
Cc1nnc2n1-c1ccc(-c3ccoc3)c(Cc3ccccc3)c1COC2 [Cpd. No. 80, 7-benzyl-8-(furan-3-yl)-1-methyl-4,6-dihydrobenzo[e][1,2,4]triazolo[3,4-c][1,4]oxazepine]	532 nM		
Cc1nnc2n1-c1ccc(C3CCOC3)c(Cc3ccccc3)c1COC2 (centres unmarked) [Cpd. No. 81, 7-benzyl-1-methyl-8-(tetrahydrofuran-3-yl)-4,6-dihydrobenzo[e][1,2,4]triazolo[3,4-c][1,4]oxazepine]	5420 nM		
Cc1nnc2n1-c1ccc(C#C[Si](C)(C)C)c(Cc3ccccc3)c1COC2 [Cpd. No. 82, 7-benzyl-1-methyl-8-((trimethylsilyl)ethynyl)-4,6-dihydrobenzo[e][1,2,4]triazolo[3,4-c][1,4]oxazepine]	500 nM		
C#Cc1ccc2c(c1Cc1ccccc1)COCc1nnc(C)n1-2 [Cpd. No. 83, 7-benzyl-8-ethynyl-1-methyl-4,6-dihydrobenzo[e][1,2,4]triazolo[3,4-c][1,4]oxazepine]	150 nM		
Cc1nnc2n1-c1sc(CN3CCOCC3)c(Cc3ccccc3)c1COC2 [Cpd. No. 90, 3-benzyl-9-methyl-2-(morpholinomethyl)-4H,6H-thieno[2,3-][1,2,4]triazolo[3,4-c][1,4]oxazepine]	6510 nM		
C=C(C)c1sc2c(c1Cc1ccccc1)COCc1nnc(C)n1-2 [Cpd. No. 94, 3-benzyl-9-methyl-2-(prop-1-en-2-yl)-4H,6H-thieno[2,3-e][1,2,4]triazolo[3,4-c][1,4]oxazepine]	1050 nM		
Cc1nnc2n1-c1sc(C3=CCOCC3)c(Cc3ccccc3)c1COC2 [Cpd. No. 95, 3-benzyl-2-(3,6-dihydro-2H-pyran-4-yl)-9-methyl-4H,6H-thieno[2,3-e][1,2,4]triazolo[3,4-c][1,4]oxazepine]	1820 nM		
Cc1nnc2n1-c1sc(C3CCOCC3)c(Cc3ccccc3)c1COC2 [Cpd. No. 97, 3-benzyl-9-methyl-2-(tetrahydro-2H-pyran-4-yl)-4H,6H-thieno[2,3-e][1,2,4]triazolo[3,4-c][1,4]oxazepine]	6710 nM		
Cc1sc2c(c1Cc1cc(F)cc(F)c1)COCc1nnc(C)n1-2 [Cpd. No. 104, 3-(3,5-difluorobenzyl)-2,9-dimethyl-4H,6H-thieno[2,3-e][1,2,4]triazolo[3,4-c][1,4]oxazepine]	313 nM		
Cc1sc2c(c1Cc1ccc(F)c(F)c1)COCc1nnc(C)n1-2 [Cpd. No. 105, 3-(3,4-difluorobenzyl)-2,9-dimethyl-4H,6H-thieno[2,3-e][1,2,4]triazolo[3,4-c][1,4]oxazepine]	279 nM		
Cc1sc2c(c1Cn1cccc1)COCc1nnc(C)n1-2 [Cpd. No. 107, 3-((1H-pyrrol-1-yl)methyl)-2,9-dimethyl-4H,6H-thieno[2,3-e][1,2,4]triazolo[3,4-c][1,4]oxazepine]	494 nM		
Cc1sc2c(c1COC(C)(C)C)COCc1nnc(C)n1-2 [Cpd. No. 108, 3-(tert-butoxymethyl)-2,9-dimethyl-4H,6H-thieno[2,3-e][1,2,4]triazolo[3,4-c][1,4]oxazepine]	5000 nM		
Cc1nnc2n1-c1scc(Br)c1CO[C@H]2C [Cpd. No. 117, (S)-3-bromo-6,9-dimethyl-4,6-dihydrothieno[2,3-e][1,2,4]triazolo[3,4-c][1,4]oxazepine]	118 nM		
